In patent publication US9969694B2, “N-(arylalkyl)-N′-pyrazolyl-urea, thiourea, guanidine and cyanoguanidine compounds as TrkA kinase inhibitors” (Array BioPharma Inc., priority 2012, dated 2018):

Biological target: T1, His-tagged recombinant human TrkA (Homo sapiens, UniProt P04629)
T1 construct: 6HIS tagged cytoplasmic domain from Invitrogen, Catalog No. PV3144; purchased Invitrogen PV3144
Experiment: TrkA Kinase Binding Assay (LanthaScreen Eu)
Settings: averaged IC50; TR-FRET binding, 60 min, 22° C.; read-out: TrkA Enzyme IC50
Method: TrkA binding activity was determined in a TrkA LanthaScreen™ Eu Kinase Binding Assay. 5 nM His-tagged recombinant human TrkA (6HIS tagged cytoplasmic domain from Invitrogen, Catalog No. PV3144) was incubated with 4 nM Alexa-Fluor® Tracer 236 (Invitrogen Cat. No. PV5592), 2 nM biotinylated anti-His (Invitrogen Cat. No. PV6090), and 2 nM europium-labeled Streptavidin (Invitrogen Cat. No. PV5899), in buffer (25 mM MOPS, pH 7.5, 5 mM MgCl2, 0.005% Triton X-100). Three fold serial dilutions of compounds of the invention in DMSO were added to a final percentage of 2% DMSO. After 60-minute incubation at 22° C., the reaction was measured using the EnVision mutlimode plate reader (PerkinElmer) via TR-FRET dual wavelength detection at […]. The percent of control was calculated using a ratiometric emission factor. The IC50 values were determined by fitting a four parameter model to the percent of control data.
Table A provides averaged IC50 values for compounds of the invention when tested in the assay of Example A, where A represents an averaged IC50 value <100 nM; B represents an averaged IC50 value from 100 to 1,000 nM; and C represents an average 1050 value above 1000 nM.

T1 sequence (P04629 440-796 limits assumed): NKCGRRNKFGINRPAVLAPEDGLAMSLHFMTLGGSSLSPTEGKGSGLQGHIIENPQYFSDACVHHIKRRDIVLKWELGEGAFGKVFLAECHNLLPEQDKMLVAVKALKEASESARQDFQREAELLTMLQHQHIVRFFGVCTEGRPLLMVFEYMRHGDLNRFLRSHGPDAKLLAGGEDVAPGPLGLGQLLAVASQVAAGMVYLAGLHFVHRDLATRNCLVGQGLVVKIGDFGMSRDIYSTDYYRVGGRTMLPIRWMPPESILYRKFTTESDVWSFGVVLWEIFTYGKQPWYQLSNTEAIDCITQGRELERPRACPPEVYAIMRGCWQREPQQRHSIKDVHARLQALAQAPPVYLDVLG

Compound | IC50 [nM]
COCc1ccc(C2CC2)c(CNC(=O)Nc2c(C)c(C)nn2-c2ccccc2)c1 [Example 5, 1-(2-cyclopropyl-5-(methoxymethyl)benzyl)-3-(3,4-dimethyl-1-phenyl-1H-pyrazol-5-yl)urea] | < 100
CCOc1ccc(COC)cc1CNC(=O)Nc1c(C)c(-c2cnn(C)c2)nn1-c1ccccc1 [Example 17, 1-(1′,4-dimethyl-1-phenyl-1H,1′H-[3,4′-bipyrazol]-5-yl)-3-(2-ethoxy-5-(methoxymethyl)benzyl)urea] | < 100
COCc1ccc(C2CCC2)c(CNC(=O)Nc2c(C)c(OC[C@H]3COC(C)(C)O3)nn2-c2ccccc2)c1 [Example 124, (S)-1-(2-cyclobutyl-5-(methoxymethyl)benzyl)-3-(3-((2,2-dimethyl-1,3-dioxolan-4-yl)methoxy)-4-methyl-1-phenyl-1H-pyrazol-5-yl)urea] | < 100
COCc1ccc(OC(F)F)c(CNC(=O)Nc2c(C)c(OC3CC4(C3)CN(C)C4)nn2-c2ccccc2)c1 [Example 108, 1-(2-(difluoromethoxy)-5-(methoxymethyl)benzyl)-3-(4-methyl-3-((2-methyl-2-azaspiro[3.3]heptan-6-yl)oxy)-1-phenyl-1H-pyrazol-5-yl)urea] | < 100
Cc1c(-c2cnn(C)c2)nn(-c2ccccc2)c1NC(=O)NCc1cccc2ccccc12 [Example 43, 1-(1′,4-dimethyl-1-phenyl-1H,1′H-3,4′-bipyrazol-5-yl)-3-(naphthalen-1-ylmethyl)urea] | 100 to 1000
COCc1ccc(OC(F)(F)F)c(CNC(=O)Nc2c(C)c(OC3CNC3)nn2-c2ccccc2)c1 [Example 89, 1-(3-(azetidin-3-yloxy)-4-methyl-1-phenyl-1H-pyrazol-5-yl)-3-(5-(methoxymethyl)-2-(trifluoromethoxy)benzyl)urea] | < 100
COCc1ccc(C2CC2)c(C(C)NC(=O)Nc2c(C)c(-c3cnn(C)c3)nn2-c2ccccc2)c1 (centres unmarked) [Example 30, 1-(1-(2-cyclopropyl-5-(methoxymethyl)phenyl)ethyl)-3-(1′,4-dimethyl-1-phenyl-1H,1′H-[3,4′-bipyrazol]-5-yl)urea] | 100 to 1000
Cc1c(-c2cnn(C)c2)nn(-c2ccccc2)c1NC(=O)NCc1ccccc1-c1ccccc1 [Example 50, 1-([1,1′-biphenyl]-2-ylmethyl)-3-(1′,4-dimethyl-1-phenyl-1H,1′H-[3,4′-bipyrazol]-5-yl)urea] | 100 to 1000
COCc1ccc(OC(F)(F)F)c(CNC(=O)Nc2c(C)c(OC[C@@H]3COCCN3C)nn2-c2ccccc2)c1 [Example 110, (S)-1-(5-(methoxymethyl)-2-(trifluoromethoxy)benzyl)-3-(4-methyl-3-((4-methylmorpholin-3-yl)methoxy)-1-phenyl-1H-pyrazol-5-yl)urea] | < 100
COCc1ccc(OC(F)(F)F)c(CNC(=O)Nc2c(C)c(O[C@@H]3CCNC[C@H]3F)nn2-c2ccccc2)c1 [Example 95, 1-(3-(((3R,4R)-3-fluoropiperidin-4-yl)oxy)-4-methyl-1-phenyl-1H-pyrazol-5-yl)-3-(5-(methoxymethyl)-2-(trifluoromethoxy)benzyl)urea] | < 100
COCc1ccc(C2CC2)c(CNC(=O)Nc2c(C)c(-c3cnn(C)c3)nn2-c2ccccc2)c1 [Example 6, 1-(2-cyclopropyl-5-(methoxymethyl)benzyl)-3-(1′,4-dimethyl-1-phenyl-1H,1′H-[3,4′-bipyrazol]-5-yl)urea] | < 100
COCc1ccc(OC(F)(F)F)c(CNC(=O)Nc2c(C)c(OCCF)nn2-c2ccccc2)c1 [Example 60, 1-(3-(2-fluoroethoxy)-4-methyl-1-phenyl-1H-pyrazol-5-yl)-3-(5-(methoxymethyl)-2-(trifluoromethoxy)benzyl)urea] | < 100
COCc1cccc(C(NC(=O)Nc2c(C)c(-c3ccc(=O)n(C)c3)nn2-c2ccccc2)C2CC2)c1 (centres unmarked) [Example 26, 1-(cyclopropyl(3-(methoxymethyl)phenyl)methyl)-3-(4-methyl-3-(1-methyl-6-oxo-1,6-dihydropyridin-3-yl)-1-phenyl-1H-pyrazol-5-yl)urea] | 100 to 1000
COCc1ccc(OCC2CC2)c(CNC(=O)Nc2c(C)c(-c3cnn(C)c3)nn2-c2ccccc2)c1 [Example 14, 1-(2-(cyclopropylmethoxy)-5-(methoxymethyl)benzyl)-3-(1′,4-dimethyl-1-phenyl-1H,1′H-[3,4′-bipyrazol]-5-yl)urea] | < 100
COCc1ccc(OC(F)F)c(CNC(=O)Nc2c(C)c(OCC3CCN(C)C3)nn2-c2ccccc2)c1 (centres unmarked) [Example 107, 1-(2-(difluoromethoxy)-5-(methoxymethyl)benzyl)-3-(4-methyl-3-((1-methylpyrrolidin-3-yl)methoxy)-1-phenyl-1H-pyrazol-5-yl)urea] | < 100
COCc1ccc(C2CC2)c(CNC(=O)Nc2c(C)c(-c3ccn(C)c(=O)c3)nn2-c2ccccc2)c1 [Example 7, 1-(2-cyclopropyl-5-(methoxymethyl)benzyl)-3-(4-methyl-3-(1-methyl-2-oxo-1,2-dihydropyridin-4-yl)-1-phenyl-1H-pyrazol-5-yl)urea] | < 100
O=C(Nc1c2c(nn1-c1ccccc1)CCC2)NC(Cc1ccccc1)Cc1ccc(F)c(F)c1 (centres unmarked) [Example 47, 1-(1-(3,4-difluorophenyl)-3-phenylpropan-2-yl)-3-(2-phenyl-2,4,5,6-tetrahydrocyclopenta[c]pyrazol-3-yl)urea] | < 100
COCc1ccc(OC(F)(F)F)c(CNC(=O)Nc2c(C)c(O[C@@H]3CCN(C)C[C@H]3F)nn2-c2ccccc2)c1 [Example 98, 1-(3-(((3R,4R)-3-fluoro-1-methylpiperidin-4-yl)oxy)-4-methyl-1-phenyl-1H-pyrazol-5-yl)-3-(5-(methoxymethyl)-2-(trifluoromethoxy)benzyl)urea] | < 100
O=C(Nc1c2c(nn1-c1ccccc1)CCC2)NC(Cc1ccccc1Cl)c1ccccc1 (centres unmarked) [Example 45, 1-(2-(2-chlorophenyl)-1-phenylethyl)-3-(2-phenyl-2,4,5,6-tetrahydrocyclopenta[c]pyrazol-3-yl)urea] | 100 to 1000
COCc1ccc(OC(F)(F)F)c(CNC(=O)Nc2c(C)c(OCC3CNC3)nn2-c2ccccc2)c1 [Example 72, 1-(3-(azetidin-3-ylmethoxy)-4-methyl-1-phenyl-1H-pyrazol-5-yl)-3-(5-(methoxymethyl)-2-(trifluoromethoxy)benzyl)urea] | < 100
COCc1ccc(C2CCC2)c(CNC(=O)Nc2c(C)c(-c3cnn(C)c3)nn2-c2ccccc2)c1 [Example 11, 1-(2-cyclobutyl-5-(methoxymethyl)benzyl)-3-(1′,4-dimethyl-1-phenyl-1H,1′H-[3,4′-bipyrazol]-5-yl)urea] | < 100
O=C(Nc1c2c(nn1-c1ccccc1)CCC2)NC(Cc1ccccc1)Cc1ccccc1 [Example 42, 1-(1,3-diphenylpropan-2-yl)-3-(2-phenyl-2,4,5,6-tetrahydrocyclopenta[c]pyrazol-3-yl)urea] | < 100
COCc1ccc(OC(F)(F)F)c(CNC(=O)Nc2c(C)c(-c3cnn(C)c3)nn2-c2ccccc2)c1 [Example 22, 1-(1′,4-dimethyl-1-phenyl-1H,1′H-[3,4′-bipyrazol]-5-yl)-3-(5-(methoxymethyl)-2-(trifluoromethoxy)benzyl)urea] | 100 to 1000
COCc1ccc(CNCC(F)(F)F)c(CNC(=O)Nc2c(C)c(-c3cnn(C)c3)nn2-c2ccccc2)c1 [Example 119, 1-(1′,4-dimethyl-1-phenyl-1H,1′H-[3,4′-bipyrazol]-5-yl)-3-(5-(methoxymethyl)-2-(((2,2,2-trifluoroethyl)amino)methyl)benzyl)urea] | 100 to 1000
COCc1ccc(OC(F)(F)F)c(CNC(=O)Nc2c(C)c(OCC3(F)CCNCC3)nn2-c2ccccc2)c1 [Example 70, 1-(3-((4-fluoropiperidin-4-yl)methoxy)-4-methyl-1-phenyl-1H-pyrazol-5-yl)-3-(5-(methoxymethyl)-2-(trifluoromethoxy)benzyl)urea] | < 100
O=C(Nc1c2c(nn1-c1ccccc1)CCC2)NC(Cc1ccccc1)Cc1ccccc1Cl (centres unmarked) [Example 46, 1-(1-(2-chlorophenyl)-3-phenylpropan-2-yl)-3-(2-phenyl-2,4,5,6-tetrahydrocyclopenta[c]pyrazol-3-yl)urea] | < 100
COCc1ccc(OC(F)(F)F)c(CNC(=O)Nc2c(C)c(OC3CC4(C3)CN(C)C4)nn2-c2ccccc2)c1 [Example 85, 1-(5-(methoxymethyl)-2-(trifluoromethoxy)benzyl)-3-(4-methyl-3-((2-methyl-2-azaspiro[3.3]heptan-6-yl)oxy)-1-phenyl-1H-pyrazol-5-yl)urea] | < 100
COCc1ccc(OC(F)(F)F)c(CNC(=O)Nc2c(C)c(OCC3CCNCC3)nn2-c2ccccc2)c1 [Example 67, 1-(5-(methoxymethyl)-2-(trifluoromethoxy)benzyl)-3-(4-methyl-1-phenyl-3-(piperidin-4-ylmethoxy)-1H-pyrazol-5-yl)urea] | < 100
COCc1ccc(OC2CCC2)c(CNC(=O)Nc2c(C)c(-c3ccc(C)nc3)nn2-c2ccccc2)c1 [Example 19, 1-(2-cyclobutoxy-5-(methoxymethyl)benzyl)-3-(4-methyl-3-(6-methylpyridin-3-yl)-1-phenyl-1H-pyrazol-5-yl)urea] | < 100
